Experimental data from ChEMBL document CHEMBL3217712, “Improved biodistribution, pharmacokinetics and photodynamic efficacy using a new photostable sulfonamide bacteriochlorin” (Medchemcomm, 2012).
The source made the active and inactive calls. No cut-off for these calls is given here.

How the values were obtained:
Nucleic Acid [1] = assay: Ratio of drug level in tumor to skin in mouse Cloudman S91 tumor bearing DBA2 mouse at 10 mg/kg, ip; type: ADME, organism-based; set-up: dose 10 mg/kg, route intraperitoneal; conditions: in vivo
Nucleic Acid [2] = assay: Ratio of drug level in tumor to muscle in mouse Cloudman S91 tumor bearing DBA2 mouse at 10 mg/kg, ip; type: ADME, organism-based; set-up: dose 10 mg/kg, route intraperitoneal; conditions: in vivo
Nucleic Acid [3] = assay: Ratio of drug level in tumor to skin in ip dosed human HT29 tumor bearing mouse; type: ADME, organism-based; conditions: in vivo
Nucleic Acid [4] = assay: Ratio of drug level in tumor to muscle in ip dosed human HT29 tumor bearing mouse; type: ADME, organism-based; conditions: in vivo
[5] = n-Octanol-water partition coefficient, log P of the compound; type: physicochemical
S91 [6] = assay: Photodynamic efficacy against mouse Cloudman S91 cells allografted in DBA2 mouse assessed as disappearance of tumor at 10 mg/kg, ip followed by irradiated with 96 J cm'-2 laser light for 20 mins; type: functional, organism-based; set-up: dose 10 mg/kg
S91 [7] = assay: Photodynamic efficacy against mouse Cloudman S91 cells allografted in DBA2 mouse assessed as hyperaemia, oedema and progressive darkening of tumor at 10 mg/kg, ip followed by irradiated with 96 J cm'-2 laser light for 20 mins; type: functional, organism-based; set-up: dose 10 mg/kg
S91 [8] = assay: Photodynamic efficacy against mouse Cloudman S91 cells allografted in DBA2 mouse assessed as necrotic scab formation in tumor at 10 mg/kg, ip followed by irradiated with 96 J cm'-2 laser light for 20 mins measured after 12 hrs; type: functional, organism-based; set-up: dose 10 mg/kg
S91 [9] = assay: Photodynamic efficacy against mouse Cloudman S91 cells allografted in DBA2 mouse assessed as necrotic and flat tumor at 10 mg/kg, ip followed by irradiated with 96 J cm'-2 laser light for 20 mins measured after 1 to 2 days; type: functional, organism-based; set-up: dose 10 mg/kg
Mus musculus = assay: Toxicity in mouse Cloudman S91 cells allografted DBA2 mouse assessed as skin damage with oedema and large scab formation at 10 mg/kg, ip followed by irradiated with 96 J cm'-2 laser light for 20 mins measured after 24 hrs; type: organism-based; set-up: dose 10 mg/kg, route intraperitoneal; conditions: in vivo
S91 [10] = assay: Antitumor activity against mouse Cloudman S91 cells allografted in DBA2 mouse at 10 mg/kg, ip; type: functional, organism-based; set-up: dose 10 mg/kg
S91 [11] = assay: Photodynamic efficacy against mouse Cloudman S91 cells allografted in DBA2 mouse assessed as disappearance of tumor at 10 mg/kg, ip followed by irradiated with 96 J cm'-2 laser light for 20 mins measured after 80 days; type: functional, organism-based; set-up: dose 10 mg/kg
S91 [12] = assay: Photodynamic efficacy against mouse Cloudman S91 cells allografted in DBA2 mouse assessed as time of tumor growth delay at 10 mg/kg, ip followed by irradiated with 96 J cm'-2 laser light for 20 mins; type: functional; conditions: route intraperitoneal
S91 [13] = assay: Photodynamic efficacy against mouse Cloudman S91 cells allografted in DBA2 mouse assessed as tumor growth delay at 10 mg/kg, ip followed by irradiated with 96 J cm'-2 laser light for 20 mins relative to sulfonated bacteriochlorin; type: functional; conditions: route intraperitoneal
[14] = Biodistribution in mouse Cloudman S91 tumor bearing DBA2 mouse blood at 10 mg/kg, ip after 2 hrs; type: ADME, organism-based; set-up: dose 10 mg/kg, route intraperitoneal; conditions: read-out: Drug uptake
[15] = Biodistribution in mouse Cloudman S91 tumor bearing DBA2 mouse tumour at 10 mg/kg, ip after 2 hrs; type: ADME, organism-based, Neoplasm; set-up: dose 10 mg/kg, route intraperitoneal; conditions: read-out: Drug uptake
[16] = Biodistribution in mouse Cloudman S91 tumor bearing DBA2 mouse skin at 10 mg/kg, ip after 2 hrs; type: ADME, organism-based, Zone of skin; set-up: dose 10 mg/kg, route intraperitoneal; conditions: read-out: Drug uptake
[17] = Biodistribution in mouse Cloudman S91 tumor bearing DBA2 mouse muscle at 10 mg/kg, ip after 2 hrs; type: ADME, organism-based, Muscle tissue; set-up: dose 10 mg/kg, route intraperitoneal; conditions: read-out: Drug uptake
[18] = Biodistribution in mouse Cloudman S91 tumor bearing DBA2 mouse spleen at 10 mg/kg, ip after 2 hrs; type: ADME, organism-based; set-up: dose 10 mg/kg, route intraperitoneal; conditions: read-out: Drug uptake
[19] = Biodistribution in mouse Cloudman S91 tumor bearing DBA2 mouse liver at 10 mg/kg, ip after 2 hrs; type: ADME, organism-based; set-up: dose 10 mg/kg, route intraperitoneal; conditions: read-out: Drug uptake
[20] = Biodistribution in mouse Cloudman S91 tumor bearing DBA2 mouse kidneys at 10 mg/kg, ip after 2 hrs; type: ADME, organism-based; set-up: dose 10 mg/kg, route intraperitoneal; conditions: kidney, read-out: Drug uptake
[21] = Biodistribution in mouse Cloudman S91 tumor bearing DBA2 mouse intestine at 10 mg/kg, ip after 2 hrs; type: ADME, organism-based; set-up: dose 10 mg/kg, route intraperitoneal; conditions: read-out: Drug uptake
[22] = Biodistribution in mouse Cloudman S91 tumor bearing DBA2 mouse heart at 10 mg/kg, ip after 2 hrs; type: ADME, organism-based; set-up: dose 10 mg/kg, route intraperitoneal; conditions: read-out: Drug uptake
[23] = Biodistribution in mouse Cloudman S91 tumor bearing DBA2 mouse lungs at 10 mg/kg, ip after 2 hrs; type: ADME, organism-based; set-up: dose 10 mg/kg, route intraperitoneal; conditions: lung, read-out: Drug uptake
[24] = Biodistribution in mouse Cloudman S91 tumor bearing DBA2 mouse blood at 10 mg/kg, ip after 6 hrs; type: ADME, organism-based; set-up: dose 10 mg/kg, route intraperitoneal; conditions: read-out: Drug uptake
[25] = Biodistribution in mouse Cloudman S91 tumor bearing DBA2 mouse tumour at 10 mg/kg, ip after 6 hrs; type: ADME, organism-based, Neoplasm; set-up: dose 10 mg/kg, route intraperitoneal; conditions: read-out: Drug uptake
[26] = Biodistribution in mouse Cloudman S91 tumor bearing DBA2 mouse skin at 10 mg/kg, ip after 6 hrs; type: ADME, organism-based, Zone of skin; set-up: dose 10 mg/kg, route intraperitoneal; conditions: read-out: Drug uptake
[27] = Biodistribution in mouse Cloudman S91 tumor bearing DBA2 mouse muscle at 10 mg/kg, ip after 6 hrs; type: ADME, organism-based, Muscle tissue; set-up: dose 10 mg/kg, route intraperitoneal; conditions: read-out: Drug uptake
[28] = Biodistribution in mouse Cloudman S91 tumor bearing DBA2 mouse spleen at 10 mg/kg, ip after 6 hrs; type: ADME, organism-based; set-up: dose 10 mg/kg, route intraperitoneal; conditions: read-out: Drug uptake
[29] = Biodistribution in mouse Cloudman S91 tumor bearing DBA2 mouse liver at 10 mg/kg, ip after 6 hrs; type: ADME, organism-based; set-up: dose 10 mg/kg, route intraperitoneal; conditions: read-out: Drug uptake
[30] = Biodistribution in mouse Cloudman S91 tumor bearing DBA2 mouse kidneys at 10 mg/kg, ip after 6 hrs; type: ADME, organism-based; set-up: dose 10 mg/kg, route intraperitoneal; conditions: kidney, read-out: Drug uptake
[31] = Biodistribution in mouse Cloudman S91 tumor bearing DBA2 mouse intestine at 10 mg/kg, ip after 6 hrs; type: ADME, organism-based; set-up: dose 10 mg/kg, route intraperitoneal; conditions: read-out: Drug uptake
[32] = Biodistribution in mouse Cloudman S91 tumor bearing DBA2 mouse heart at 10 mg/kg, ip after 6 hrs; type: ADME, organism-based; set-up: dose 10 mg/kg, route intraperitoneal; conditions: read-out: Drug uptake
[33] = Biodistribution in mouse Cloudman S91 tumor bearing DBA2 mouse lungs at 10 mg/kg, ip after 6 hrs; type: ADME, organism-based; set-up: dose 10 mg/kg, route intraperitoneal; conditions: lung, read-out: Drug uptake
[34] = Biodistribution in mouse Cloudman S91 tumor bearing DBA2 mouse blood at 10 mg/kg, ip after 12 hrs; type: ADME, organism-based; set-up: dose 10 mg/kg, route intraperitoneal; conditions: read-out: Drug uptake
[35] = Biodistribution in mouse Cloudman S91 tumor bearing DBA2 mouse tumour at 10 mg/kg, ip after 12 hrs; type: ADME, organism-based, Neoplasm; set-up: dose 10 mg/kg, route intraperitoneal; conditions: read-out: Drug uptake
[36] = Biodistribution in mouse Cloudman S91 tumor bearing DBA2 mouse skin at 10 mg/kg, ip after 12 hrs; type: ADME, organism-based, Zone of skin; set-up: dose 10 mg/kg, route intraperitoneal; conditions: read-out: Drug uptake

Ratio (Nucleic Acid [1]): 6 | Ratio (Nucleic Acid [2]): 7 | Ratio (Nucleic Acid [3]): 1 | Ratio (Nucleic Acid [4]): 5 | logP [5]: 1.83 | concentration at 2 h [14]: 90 ng/g | concentration at 2 h [15]: 40 ng/g | concentration at 2 h [16]: 50 ng/g | concentration at 2 h [17]: 30 ng/g | concentration at 2 h [18]: 2300 ng/g | concentration at 2 h [19]: 980 ng/g | concentration at 2 h [20]: 100 ng/g | concentration at 2 h [21]: 200 ng/g | concentration at 2 h [22]: 40 ng/g | concentration at 2 h [23]: 200 ng/g | concentration at 6 h [24]: 240 ng/g | concentration at 6 h [25]: 160 ng/g | concentration at 6 h [26]: 70 ng/g | concentration at 6 h [27]: 50 ng/g | concentration at 6 h [28]: 7000 ng/g | concentration at 6 h [29]: 4800 ng/g | concentration at 6 h [30]: 400 ng/g | concentration at 6 h [31]: 1800 ng/g | concentration at 6 h [32]: 100 ng/g | concentration at 6 h [33]: 300 ng/g | concentration at 12 h [34]: 970 ng/g | concentration at 12 h [35]: 370 ng/g | concentration at 12 h [36]: 180 ng/g
Structure (SMILES): CCNS(=O)(=O)c1ccc(Cl)c(-c2c3nc(c(-c4c(Cl)ccc(S(=O)(=O)NCC)c4Cl)c4ccc([nH]4)c(-c4c(Cl)ccc(S(=O)(=O)NCC)c4Cl)c4nc(c(-c5c(Cl)ccc(S(=O)(=O)NCC)c5Cl)c5ccc2[nH]5)CC4)CC3)c1Cl
Activity (S91 [6]): Active | Activity (S91 [7]): Active | Activity (S91 [8]): Active | Activity (S91 [9]): Active | Activity (Mus musculus): Toxic | Activity (S91 [10]): inactive | Activity (S91 [11]): inactive | Time (S91 [12]): 44 days | fold change (FC) (S91 [13]): 1.6
